The test system of test [1] is CD3+CD25+ cells in human PBMC. As to the kind of experiment: T lymphocyte activation (CD3+CD25+) in PHA-stimulated PBMC of asthma patients (Example 6). Type of test: cell-based. Particulars: PHA 50 μg/ml, 24 hours; 10^−7 M. The protocol:
Experiments were carried out to determine whether formulations based on the platelet activating factor receptor (PAFR) antagonist and free radical scavenger Ginkgolide B (GB) in combination with the antioxidant carotenoid astaxanthin (ASX) suppress T cell activation in the same dose range as two commonly-used antihistamines: cetirizine dihydrochloride (CTZ/Zyrtec) and azelastine ([…]). […] Results are reported as stimulation indices (SI) of % CD3+CD25+ cells in cultures treated with PHA alone to % CD3+CD25+ cells in each drug-supplemented culture. […] Subjects for this study included 12 patients diagnosed with atopic asthma, 7 male and 5 female, ranging in age from 21 to 40 years (mean 28±1.8 years). Disease duration ranged from 2 to 12 years. Atopy was defined on the basis of one or more positive skin prick tests to a range of 20 allergens. None of the patients had received systemic therapy for at least 6 weeks prior to blood collection. The mean serum IgE was 335 (170-480) IU/ml. Venous blood for each subject was collected in polyethylene tubes containing EDTA during a one hour morning time interval. PBMC were separated by Ficoll-paque (Pharmacia, Uppsala, Sweden) density gradient centrifugation. Cells were washed and suspended in RPMI 1640 medium (Gibco BRL, Gaithersburg, Md.) at density of 1×10^6 cells/ml. PBMC were stimulated with 50 μg/ml Phytohemaglutinin (PHA) (Sigma Immunopharmaceuticals, St. Lous Mo.), or PHA plus 10^-8-10^-5 M astaxanthin (Natural Alternatives International (NAI) Inc., San Marcos Calif.); or ginkgolide B 10^-8-10^-6 M (NAI San Marcos Calif.); or selected combinations of ASX plus GB. Comparison of ASX and GB effects on T cell activation were made with two other pharmacological agents with anti-asthmatic properties by treating cells with 10^-7-10^-4 M cetirizine dihydrochloride (Pfizer Pharmaceuticals, Norwich Conn.); or 10^-7-10^-4 M azalestine hydrochloride (Wallace Pharmaceuticals, Somerset N.J.), followed by evaluation of cultures for the same biological endpoints as ASX/GB-treated cells. Each reagent was added at the outset of a 24 hours culture period, followed by harvest of cellular fraction for immunophenotyping studies. […] Two-color Flow cytometry was conducted using a Coulter Epics XL automated flow cytometer (Coulter Scientific, Hialeah, Fla., USA). Isotypic controls for the monoclonal antibodies (mAb) used to detect antigens of interest were established for each cell preparation. Positive analysis regions for cells expressing specific surface markers were set against controls and specific binding of fluorophore-conjugated mAb was analyzed by cytofluorography according to standard methods recommended by the manufacturer. Lymphocyte subpopulations were identified by position on forward and side scatter plots and live-gated. Expression of each antigen was reported as percentage cells positive for a particular T cell subpopulation defined by expression of CD3 (T lymphocyte marker) plus CD25, plus or minus standard error. Statistical analysis was performed using an independent t-test. All statistical analyses were performed using the SPSS for Windows statistical package (Norusis/SPSS, Inc.). […] The capacity of formulations evaluated in this study to suppress immune activation was measured as a stimulation index (SI), defined as the ratio of […].

Test [2] deals with cAMP and cGMP concentrations in the lung tissue. As to the kind of experiment: Ovalbumin-induced asthma in guinea pigs: cAMP and cGMP in lung tissue (radioimmunoassay). It is filed as in vivo, guinea pig. To be noted: lung tissue 24 hours after OV challenge. The protocol: The effect combinations of vitamin C, astaxanthin, and ginkolide on asthma-associated disease parameters ovalbumin(OA)-induced asthma in guinea pigs was evaluated. Twenty-four hours following OA challenge, animals are sacrificed and numbers of inflammatory cells (eosinophils, neutrophils, macrophages) are measured in bronchoalveolar lavage (BAL) fluid; and cAMP and cGMP concentrations in the lung tissue. The experiments were carried out as follows. Male Hartley guinea pigs (250-350 g) were sensitized by intramuscular injections of 0.35 ml of a 5% (W/V) ovalbumin (OA)/saline solution into each thigh on days 1 and 4. Guinea pigs were ready for asthmatic challenge after 25 days of ovalbumin injection. Asthmatic challenge was carried out with ovalbumin aerosol, and bronchoalveolar lavage (BAL) was done 24 hours later. The numbers of eosinophils, neutrophils, and macrophages in the BAL fluid were counted. Biopsies from lung tissues, cAMP and cGMP were measured using commercially available radioimmunoassay kits (Amersham). Immediately after sampling, lung biopsies were frozen by means of a Wollenberger clamp prechilled in liquid nitrogen. Samples were powdered with a pestle and mortar in liquid nitrogen and trichloro acetic acid (TCA) was added to the powdered frozen samples ([…] of tissue). Samples were further homogenized in the frozen TCA in the braying mortar and then centrifuged at 14,000×g for 10 min at 4° C. The supernatants were extracted 6 times in water-saturated diethylether, evaporated and assayed for cGMP by radioimmunoassay using liquid scintillation counter (Packard, Tri-Carb 2100TR). The dose-responsive effect of AX, EGb761, and vitamin C administered independently for suppression of asthma-associated parameters in allergen-induced, asthmatic guinea pigs was determined. Ibuprophen (IB) was used as the positive control. Concentration of inflammatory cells in bronchoalveolar lavage (BAL) fluid and levels of cAMP and cGMP in lung tissue were measured in guinea pigs 24 hours following challenge with OV. […] The dose-responsive effect of AX, EGb761, and vitamin C administered in combination for suppression of asthma-associated parameters in allergen-induced, asthmatic guinea pigs was determined. The combination of these three components was given each day for each guinea pig as a “cocktail”. Concentration of inflammatory cells in bronchoalveolar lavage (BAL) fluid and levels of cAMP and cGMP in lung tissue were measured in guinea pigs 24 hours following challenge with OV.

Molecules are shown by their SMILES.

Regarding `CC1=C(/C=C/C(C)=C/C=C/C(C)=C/C=C/C=C(C)/C=C/C=C(C)/C=C/C2=C(C)C(=O)[C@@H](O)CC2(C)C)C(C)(C)C[C@H](O)C1=O` [astaxanthin, 3,3′-dihydroxy-4,4′-diketo-B-carotene], the “SI (CD3+CD25+)” value in test [1] is given as 0.89±0.06. Further, the cAMP in test [2] (5 mg/kg) was 6.9 ± 0.5 pmol (mg protein)^−1; in test [2] (10 mg/kg), 8.1 ± 0.8 pmol (mg protein)^−1; in test [2] (30 mg/kg), 9.6 ± 0.8 pmol (mg protein)^−1; in test [2] (100 mg/kg), 12.6 ± 0.8 pmol (mg protein)^−1; in test [2] (200 mg/kg), 12.1 ± 0.5 pmol (mg protein)^−1. The cGMP in test [2] (5 mg/kg) is recorded as 1.2 ± 0.1 pmol (mg protein)^−1; in test [2] (10 mg/kg), 1.4 ± 0.1 pmol (mg protein)^−1; in test [2] (30 mg/kg) it was 1.8 ± 0.3 pmol (mg protein)^−1; in test [2] (100 mg/kg) it was 2.8 ± 0.3 pmol (mg protein)^−1; in test [2] (200 mg/kg), 2.7 ± 0.2 pmol (mg protein)^−1.

These data come from patent US20060127505A1, “Anti-inflammatory formulations” (priority 2002, published 2006).
